Experimental data: patent publication US20090131481A1, “Transcription Factor Modulating Compounds and Methods of Use Thereof” (Paratek Pharmaceuticals, Inc., published 2009)
Where two headings read alike, the source gives them in different places.

Legend:
LcrF (VirF) = LcrF (VirF) (Yersinia pestis, UniProt P28808); experiment: biochemical; assay type: binding, Y. pseudotuberculosis
ExsA = target: T1, ExsA (Pseudomonas aeruginosa, UniProt P26993); experiment: Chemiluminescence-based ExsA-DNA binding assay; parameters: species or system P. aeruginosa
T1 construct: made in house
T1 sequence (P26993 1-278): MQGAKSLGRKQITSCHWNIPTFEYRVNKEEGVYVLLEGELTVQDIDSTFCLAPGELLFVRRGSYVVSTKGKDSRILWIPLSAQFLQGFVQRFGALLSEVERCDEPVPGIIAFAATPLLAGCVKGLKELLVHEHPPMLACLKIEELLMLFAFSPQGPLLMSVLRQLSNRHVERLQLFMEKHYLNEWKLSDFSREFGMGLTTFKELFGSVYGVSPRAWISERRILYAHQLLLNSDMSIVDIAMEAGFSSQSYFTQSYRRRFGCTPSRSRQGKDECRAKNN

SlyA = target: T2, SlyA (Escherichia coli, UniProt P0A8W2); experiment: biochemical; assay type: binding, E. coli
T2 sequence (P0A8W2 1-144): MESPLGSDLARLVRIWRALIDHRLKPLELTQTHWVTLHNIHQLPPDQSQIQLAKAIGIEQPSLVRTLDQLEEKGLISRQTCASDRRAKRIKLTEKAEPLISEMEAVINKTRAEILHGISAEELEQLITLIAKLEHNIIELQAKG

Y. pseudotuberculosis [1] = experiment: microbe, parasite or virus in culture; details: Yersinia pseudotuberculosis, J774, read-out: % Cytotoxicity
P. aeruginosa = P. aeruginosa cytotoxicity whole cell assay (J774 cells, LDH release); details: relative to vehicle treated cells infected with wild type P. aeruginosa
E. coli UPEC strain C189 = experiment: Ascending pyelonephritis model of infection (Example 3); assay type: in vivo; details: female CD1 mice, oral dosing at infection and once a day for 4 days, 5-day infection
uncut plasmid DNA = experiment: Qualitative agarose gel DNA intercalation assay; assay type: binding; details: 100 ng uncut plasmid DNA, compared with a known DNA intercalator
SoxS [2] = target: T3, SoxS (Escherichia coli, UniProt P0A9E2); experiment: Chemiluminescence-based SoxS-DNA binding assay; parameters: made in house; species or system E. coli
T3 sequence (P0A9E2 1-107): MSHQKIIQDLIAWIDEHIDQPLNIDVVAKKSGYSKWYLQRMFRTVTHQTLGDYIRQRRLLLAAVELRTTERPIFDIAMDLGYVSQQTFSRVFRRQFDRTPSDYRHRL

SoxS [3] = target: T3, SoxS; experiment: Electrophoretic mobility shift assay (EMSA) with SoxS; assay type: binding; details: 50 ug/ml compound, 5 nM SoxS
Y. pseudotuberculosis [4] = details: in vivo, sc, 25 mg/kg
Y. pseudotuberculosis [5] = details: in vivo, sc, 25 mg/kg; remark: listed apart in the source
Rob = target: T4, Rob (Escherichia coli, UniProt P0ACI0); experiment: Chemiluminescence-based Rob-DNA binding assay; parameters: species or system E. coli; details: Table 10
T4 sequence (P0ACI0 1-289): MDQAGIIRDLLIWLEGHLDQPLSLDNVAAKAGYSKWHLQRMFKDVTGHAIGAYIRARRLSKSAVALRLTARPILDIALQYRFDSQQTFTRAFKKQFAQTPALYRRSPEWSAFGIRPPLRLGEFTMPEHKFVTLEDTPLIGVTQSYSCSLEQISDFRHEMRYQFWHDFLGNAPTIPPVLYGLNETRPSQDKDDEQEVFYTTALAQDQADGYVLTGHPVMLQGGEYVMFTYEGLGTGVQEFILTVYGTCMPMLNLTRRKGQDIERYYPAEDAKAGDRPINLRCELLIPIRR

Rma = target: T5, Rma (Salmonella typhimurium, UniProt H9L484); experiment: Chemiluminescence-based Rma-DNA binding assay; parameters: species or system S. typhimurium; details: Table 10
T5 construct: fused on or other part: 6-histidine tag
T5 sequence (H9L484 1-113): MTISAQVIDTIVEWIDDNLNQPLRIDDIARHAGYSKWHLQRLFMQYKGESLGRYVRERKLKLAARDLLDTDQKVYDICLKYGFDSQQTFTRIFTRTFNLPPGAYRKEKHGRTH

[6] = Y. pseudotuberculosis VirF EC50
[7] = Table 11, subsequent assay, read-out: P. aeruginosa ExsA EC50
[8] = EC50 for inhibition of LcrF(VirF)-DNA binding
[9] = Table 7, cell-free system, read-out: ExsA EC50
[10] = dose response analysis (footnote c), read-out: in vitro SoxS activity: concentration necessary to inhibit DNA-protein binding by 50% (EC50)
[11] = read-out: % Inhibition (SoxS binding to DNA)
[12] = compound screening concentration of 50 μg/ml (footnote b), read-out: in vitro SoxS activity: percent inhibition of DNA-protein binding

Chain of LcrF (VirF) (P28808 whole entry, looked up): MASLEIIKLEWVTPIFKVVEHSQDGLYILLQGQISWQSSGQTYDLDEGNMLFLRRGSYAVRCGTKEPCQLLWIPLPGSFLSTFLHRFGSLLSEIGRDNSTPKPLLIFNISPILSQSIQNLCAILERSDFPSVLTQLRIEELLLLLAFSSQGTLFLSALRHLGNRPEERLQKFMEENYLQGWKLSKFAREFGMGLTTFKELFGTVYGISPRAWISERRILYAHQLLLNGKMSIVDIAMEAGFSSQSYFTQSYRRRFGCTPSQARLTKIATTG

Row | Compound | EC50 (LcrF (VirF); [6]) [µM] | EC50 (ExsA; [7]) [µM] | EC50 (SlyA) [µM] | activity at 50 µg/mL (Y. pseudotuberculosis [1]) [%] | EC50 (LcrF (VirF); [8]) [µM] | EC50 (ExsA; [9]) [µM] | Efficacy (log10 decrease in the CFU/g kidney tissue) (E. coli UPEC strain C189) | other results
1 | N#Cc1ccc2nc(-c3ccc(NC(=O)/C=C/c4ccc(F)cc4)cc3)n(O)c2c1 [CM] | 5.1 to 15 | < 5 | > 15.1 | 75 to 99 |  |  |  | Cytotoxicity at 50 μg/mL Pseudomonas (P. aeruginosa): ** (reduced P. aeruginosa cytotoxicity below 75% of untreated, wild type levels at 50 mg/mL)
2 | Cc1ccc(/C=C/C(=O)Nc2ccc(-c3nc4ccc([N+](=O)O)cc4n3O)cc2)cc1 [S] | < 5 | < 5 | > 15.1 |  | < 10 | < 10 |  | 
3 | CCc1cc(-c2nc3ccc([N+](=O)[O-])cc3n2O)ccc1NC(=O)/C=C/c1ccc(C)cc1 [DP] | < 5 | 5.1 to 15 | > 15.1 | < 75 |  |  |  | Cytotoxicity at 50 μg/mL Pseudomonas (P. aeruginosa): * (reduced P. aeruginosa cytotoxicity to 99-75% of untreated, wild type levels at 50 mg/mL)
4 | CN(C)c1ccc(-c2nc3ccc([N+](=O)[O-])cc3n2O)cc1 [BP] |  |  |  |  |  |  | *** (exhibited a 0-1.0 log decrease in CFU/g) | ability to intercalate DNA (uncut plasmid DNA): not found to intercalate DNA; EC50 (SoxS [2]; [10]): > 5 µM; inhibition at 50 µg/mL (SoxS [2]; [11]): > 70%
5 | O=C(O)Cn1c(-c2nc3ccc([N+](=O)[O-])cc3n2O)nc2ccccc21 [BS] |  |  |  |  |  |  | *** (exhibited a 0-1.0 log decrease in CFU/g) | EC50 (SoxS [2]; [10]): 1 to 4.9 µM
6 | COc1ccc(C(=O)Nc2ccc(-c3nc4ccc([N+](=O)[O-])cc4n3O)cc2)cc1 [B] |  |  |  | < 75 | 10 to 25 | > 25 | *** (exhibited a 0-1.0 log decrease in CFU/g) | inhibition at 50 µg/mL (SoxS [2]; [12]): > 70%
7 | CC(=O)c1ccc(/C=C/C(=O)Nc2ccc(-c3nc4ccc([N+](=O)[O-])cc4n3O)cc2)cc1 [AJ, (E)-3-(4-Acetyl-phenyl)-N-[4-(1-hydroxy-6-nitro-H-benzoimidazol-2-yl)-phenyl]-acrylamide] | < 5 | < 5 | > 15.1 |  | 10 to 25 |  |  | Cytotoxicity at 50 μg/mL Pseudomonas (P. aeruginosa): ** (reduced P. aeruginosa cytotoxicity below 75% of untreated, wild type levels at 50 mg/mL)
8 | O=[N+]([O-])c1ccc2nc(-c3ccco3)n(O)c2c1 [AU] |  |  |  |  |  |  |  | activity against SoxS in vitro in an EMSA (SoxS [3]): very active; ability to intercalate DNA (uncut plasmid DNA): not found to intercalate DNA
9 | CC(=O)c1ccc(C(=O)Nc2ccc(-c3nc4ccc([N+](=O)O)cc4n3O)cc2)cc1 [F] |  |  |  | < 75 | 10 to 25 | 10 to 25 | ** (exhibited a 1.1-2.0 log decrease in CFU/g) | percent of the starting weight of the infected mice (Y. pseudotuberculosis [4]): approximately 100%; percent survival of infected mice (Y. pseudotuberculosis [4]): 60%; Log Decrease in CFU/g Lung Tissue (Y. pseudotuberculosis [5]): ** (key: ***: exhibited a 0-1.0 log decrease in the CFU/g of LcrF in lung tissue; **: exhibited a 1.1-2.0 log decrease in the CFU/g of LcrF in lung tissue; --: exhibited no efficacy)
10 | O=C(/C=C/c1ccc(F)cc1F)Nc1ccc(-c2nc3ccc([N+](=O)[O-])cc3n2O)cc1 [V] | < 5 | < 5 | > 15.1 |  | < 10 | < 10 |  | 
11 | Cc1ccc(-c2nc3ccc([N+](=O)[O-])cc3n2O)o1 [GC] |  |  |  |  |  |  | ** (exhibited a 1.1-2.0 log decrease in CFU/g) | inhibition at 50 µg/mL (SoxS [2]; [12]): 30 to 69%
12 | CC(C)(C)C(=O)Nc1ccc(-c2nc3ccc([N+](=O)[O-])cc3n2O)cc1 [CK] |  |  |  |  |  |  | *** (exhibited a 0-1.0 log decrease in CFU/g) | inhibition at 25 µg/mL (SoxS [2]; compound screening concentration of 25 μg/ml (footnote d), read-out: in vitro SoxS activity: percent inhibition of DNA-protein binding): > 70%
13 | O=C(/C=C/c1ccc(F)cc1)Nc1ccc(-c2nc3ccc([N+](=O)[O-])cc3n2O)cc1 [M] |  |  |  | < 75 | < 10 | < 10 | *** (exhibited a 0-1.0 log decrease in CFU/g) | percent of the starting weight of the infected mice (Y. pseudotuberculosis [4]): approximately 120%; percent survival of infected mice (Y. pseudotuberculosis [4]): 80%; Log Decrease in CFU/g Lung Tissue (Y. pseudotuberculosis [5]): ** (key: ***: exhibited a 0-1.0 log decrease in the CFU/g of LcrF in lung tissue; **: exhibited a 1.1-2.0 log decrease in the CFU/g of LcrF in lung tissue; --: exhibited no efficacy)
14 | NC(=O)c1ccc2nc(-c3ccco3)n(O)c2c1 [BK] |  |  |  |  |  |  |  | activity against SoxS in vitro in an EMSA (SoxS [3]): lacked activity
15 | COc1cc(F)ccc1C(=O)Nc1ccc(-c2nc3ccc([N+](=O)[O-])cc3n2O)cc1 [DE] | < 5 | < 5 | > 15.1 | 75 to 99 |  |  |  | Cytotoxicity at 50 μg/mL Pseudomonas (P. aeruginosa): * (reduced P. aeruginosa cytotoxicity to 99-75% of untreated, wild type levels at 50 mg/mL)
16 | O=C(Nc1ccc(-c2nc3ccc([N+](=O)[O-])cc3n2O)cc1)c1ccc(F)cc1 [C] |  |  |  | 75 to 99 | 10 to 25 | < 10 |  | EC50 (ExsA; Table 10, read-out: ExsA EC50): 1 to 4.9 µM; EC50 (Rob): 1 to 4.9 µM; EC50 (Rma): 1 to 4.9 µM; EC50 (SoxS [2]; Table 10, read-out: SoxS EC50): 1 to 4.9 µM
17 | O=C(/C=C/c1ccc(F)cc1)Nc1ccc(-c2nc3ncc([N+](=O)[O-])cc3n2O)c(F)c1 [EH] | < 5 | < 5 | > 15.1 | < 75 |  |  |  | Cytotoxicity at 50 μg/mL Pseudomonas (P. aeruginosa): * (reduced P. aeruginosa cytotoxicity to 99-75% of untreated, wild type levels at 50 mg/mL)
18 | CC(=O)Nc1ccccc1-c1nc2ccc([N+](=O)[O-])cc2n1O [BX] |  |  |  |  |  |  |  | ability to intercalate DNA (uncut plasmid DNA): not found to intercalate DNA; inhibition at 50 µg/mL (SoxS [2]; [11]): 30 to 69%
19 | NC(=O)c1ccc2nc(-c3ccccc3)n(O)c2c1 [BB] |  |  |  |  |  |  |  | activity against SoxS in vitro in an EMSA (SoxS [3]): moderately active; inhibition at 50 µg/mL (SoxS [2]; [11]): 0 to 29%
20 | O=C(Nc1ccc(-c2nc3ccc([N+](=O)O)cc3n2O)cc1)c1ccc(-c2cnco2)cc1 [H] |  |  |  | < 75 | 10 to 25 | < 10 | ** (exhibited a 1.1-2.0 log decrease in CFU/g) | percent of the starting weight of the infected mice (Y. pseudotuberculosis [4]): approximately 100%; percent survival of infected mice (Y. pseudotuberculosis [4]): 80%; Log Decrease in CFU/g Lung Tissue (Y. pseudotuberculosis [5]): *** (key: ***: exhibited a 0-1.0 log decrease in the CFU/g of LcrF in lung tissue; **: exhibited a 1.1-2.0 log decrease in the CFU/g of LcrF in lung tissue; --: exhibited no efficacy)
